Measured values taken from US5387109A (priority 1992, dated 1995).

Assays:
fructosylamine deglycase [1] = test: Influence by inhibitors on the enzyme; format: biochemical, Candida guilliermondii 7087; details: 2 mM inhibitor; 10 mM phosphate buffer pH 6.0; 37° C., 4 minutes
Method: The influence of a 2 mM inhibitor on the enzyme was as follows: […]

fructosylamine deglycase [2] = test: Substrate specificity of the enzyme to amadori compounds (colorimetric determination of hydrogen peroxide formed); format: biochemical, Candida guilliermondii 7087
Method: 0.1 ml of 1 mM di-fructosyl-lysine (as dissolved in 0.05M phosphate buffer pH 7.0) is added to 0.4 ml of 0.05M phosphate buffer (pH 7.0) containing 0.3 mM 4-aminoantipyrine, 0.5 mM N-ethyl-N-(2-hydroxy-3-sulfopropyl)-m-toluidine (TOOS) and 2.0 U/ml peroxidase, and the temperature of the resulting system is equilibrated at 37° C. To this is added 0.06 ml of the enzyme solution having a suitable activity, whereupon the variation of the absorbance of the system is measured with a spectrophotometer (U-2000 Model, manufactured by Hitachi Ltd. ). From the calibration curve as formed from a standard solution containing a determined amount of hydrogen peroxide to indicate the relation between the variation of the absorbance and the amount of hydrogen peroxide, the amount of the hydrogen peroxide as formed in the test system is obtained. The amount of the enzyme of forming one micromole of hydrogen peroxide per one minute is defined to be one activity unit.
0.2 ml of 1 mM di-fructosyl-lysine (as dissolved in 0.05M phosphate buffer pH 7.0) is prepared, and the temperature of it is equilibrated at 37° C. To this is added 0.12 ml of the enzyme solution having a suitable activity and reacted for a suitable period of time at 37° C., and the reaction is stopped in a hot water bath of 100° C. To this is added 0.8 ml of 0.05M phosphate buffer (pH 7.0) containing 0.3 mM 4-aminoantipyrine, 0.5 mM TOOS and 2.0 U/ml peroxidase, whereupon the variation of the absorbance of the system is measured with a spectrophotometer (U-2000 Model, manufactured by Hitachi Ltd. ). From the calibration curve as formed from a standard solution containing a determined amount of hydrogen peroxide to indicate the relation between the variation of the absorbance and the amount of hydrogen peroxide, the amount of the hydrogen peroxide as formed in the test system is obtained. The amount of the enzyme of forming one micromole of hydrogen peroxide per one minute is defined to be one activity unit.
The enzyme catalyzes the reaction of decomposing amadori compounds of α-amino acids, β-amino acids, ε-amino acids, D-amino acids and amines to form a glucosone, hydrogen peroxide and the corresponding amino acid or amine. The enzyme not only decomposes amadori compounds of α-amino acids but also effectively acts on other amadori compounds having fructose as bonded to amino groups as positioned in other positions than the α-position of amino acids (for example, di-D-fructosyl-lysine, ε-D-fructosyl-L-lysine).
The concentration of the substrate as employed for the measurement was 2 mM, except for the use of 1 mM for di-D-fructosyl-lysine.
The data of the activity are relative values to the activity to D-fructosyl-glycine being 100.

| Molecule | Inhibition of the enzyme (fructosylamine deglycase [1]) | Activity of the Enzyme (relative values to the activity to D-fructosyl-glycine being 100) (fructosylamine deglycase [2]; substrate concentration 2 mM) | other results |
| --- | --- | --- | --- |
| [Co+2] [Co^2+] | strongly inhibited |  |  |
| [Cu+2] [Cu^2+] | strongly inhibited |  |  |
| C[C@@H](NCC(=O)[C@@H](O)[C@H](O)[C@H](O)CO)C(=O)O [D-fructosyl-D-alanine] |  | 26 |  |
| C[C@H](NCC(=O)[C@@H](O)[C@H](O)[C@H](O)CO)C(=O)O [D-fructosyl-L-alanine] |  | 251 |  |
| N[C@@H](CCCCNCC(=O)[C@@H](O)[C@H](O)[C@H](O)CO)C(=O)O [D-fructosyl-L-lysine] |  | 1386 |  |
| O=C(O)[C@H](Cc1ccccc1)NCC(=O)[C@@H](O)[C@H](O)[C@H](O)CO [D-fructosyl-L-phenylalanine] |  | 36 |  |
| O=C(CN1CCC[C@H]1C(=O)O)[C@@H](O)[C@H](O)[C@H](O)CO [D-fructosyl-L-proline] |  | 1348 |  |
| O=C(O)CNCC(=O)[C@@H](O)[C@H](O)[C@H](O)CO [D-fructosyl-glycine] |  | 100 |  |
| CNCC(=O)[C@@H](O)[C@H](O)[C@H](O)CO [D-fructosyl-methylamine] |  | 105 |  |
| CN(CC(=O)O)CC(=O)[C@@H](O)[C@H](O)[C@H](O)CO [D-fructosyl-sarcosine] |  | 63 |  |
| O=C(O)CCNCC(=O)[C@@H](O)[C@H](O)[C@H](O)CO [D-fructosyl-β-alanine] |  | 44 |  |
| [Mg+2] [Mg^2+] | not inhibited |  |  |
| [N-]=[N+]=[N-].[Na+] [NAN3] | not inhibited |  |  |
| [Ni+2] [Ni^2+] | strongly inhibited |  |  |
| [Zn+2] [Zn^2+] | strongly inhibited |  |  |
| O=C(O)c1cc[c]([Hg][Cl])cc1 [p-chloromercuribenzoic acid] | strongly inhibited |  |  |
| D-fructosyl-polylysine |  | 34 |  |
| Di-D-fructosyl-lysine |  |  | Activity of the Enzyme (relative values to the activity to D-fructosyl-glycine being 100) (fructosylamine deglycase [2]; substrate concentration 1 mM): 3500 |
